According to paper PMC10267362, “Boron-peptide conjugates with angiopep-2 for boron neutron capture therapy” (Frontiers in Medicine, 2023):

Key:
HS683 cells [1] = test: Clonogenic cell survival assay after BNCT (thermal neutron irradiation) in vitro; type: cell-based, human; details: 5 mM drug for 12 h, neutron flux 3.0 ± 0.4 × 10^11 n/cm^2 in 2 h, colonies after 2 weeks, mean ± SD, three biological repeats
Description: Thermal neutron radiation was given as described previously ([16]). A high-current proton beam (3.5 MeV) generated from a radio frequency quadrupole (RFQ) accelerator at the China Spallation Neutron Source was used to bombard a lithium target and produce thermal neutrons (0.5 eV-10 keV) for BNCT.
HS683 cells (10^6/sample) were prepared in centrifuge tubes (1.5 mL, Eppendorf) and treated with ANG-B, TAT-B, T7-B, or BPA at various concentrations (0.0–5.0 mM) for 12 h. Epithermal neutrons were given with a total neutron flux of 3.0 ± 0.4 × 10^11 n/cm^2 given in 2 h. The drug-containing medium was then washed off and desirable numbers of cells in single-cell suspension were seeded into 6-well plates to grow colonies in 2 weeks. Colonies were fixed in 70% ethanol at room temperature for 10 min, and stained with 0.1% crystal violet. Colonies with more than 50 cells were scored as clonogenic survivors.
BNCT eliminates cancer cells by heavy charged particle rays, where reproductive cell death plays a vital role in the treatment outcome ([17], [18]). Here we employed the clonogenic survival assay to analyze the reproductive cell death of glioma cells after BNCT treatment in vitro. To guarantee the performance of BNCT in vitro, we designed and manufactured a tube-holding device for thermal neutron irradiation of cells (Figure 2A). BNCT with these boron delivery agents were tested on HS683 cells. […] BNCT with 5 mM ANG-B caused 86.5% ± 5.3% of clonogenic cell death. […] Therefore, ANG-B was selected for the following in vivo study.

[2] = Boron biodistribution in intracranial glioma mouse model (ICP-AES); type: in vivo
Description: The glioma mouse model was established as reported recently ([16]). HS683 cells were transfected with luciferase-expressing vector (Lenti-UTR-Luc-Blank Vector; Promega). BALB/c nude mice were anesthetized by intraperitoneal injection of tribromoethanol (150 mg/kg) and then placed in a stereotaxic instrument. A hole was made in the mouse skull and 5 μL of HS683 cell suspension (2 × 10^7 cells/mL) was injected into the brain using the stereotaxic instrument. The growth state of glioma tumours in mice was monitored by bioluminescent imaging (IVIS 3D Perkin Elmer). Animal experiments were performed according to the protocols approved by the Animal Use Review Board and Ethical Committee of Shenzhen Bay Laboratory (permit no. AFRQS202101). After treatment with boronated peptides or BPA (HEC Pharm, Dongguan, China), boron concentrations in human cells or mice tissues were measured by inductively coupled plasma atomic emission spectroscopy (abbr., ICP-AES; Leeman’s Prodigy 7) using published methods ([16]). Proper microenvironmental components are critical for the treatment response of glioma ([19], [20]). Thus, we constructed an intracranial mouse glioma model based on HS683 cells and a research plan based on this model for testing ANG-B effects (Figure 3A). In order to monitor the intracranial tumour growth, we used luciferase-expressing cells for this mouse model (Supplementary Figure S5A). Boron biodistribution was examined at the time point for thermal neutron irradiation. 2.5 mM/kg of ANG-B or BPA (in 5% fructose solution) was injected into mice, and tissues or organs from the tumour, blood, brain, lung, liver, heart, spleen, and kidney were then collected at indicated time points for measuring boron concentrations (Supplementary Figure S5B). […] At 4 h after drug injection, the T/N ratio of ANG-B was 5.61 ± 1.0 and the T/B ratio was 9.42 ± 2.47.

[3] = tested on: HS683 intracranial glioma; test: In vivo BNCT in intracranial glioma mouse model, 18F-FDG PET/CT; details: for SUV (18F-FDG uptake) in tumour tissues after BNCT, compared to control group: PET/CT, p < 0.05
Description: The glioma mouse model was established as reported recently ([16]). HS683 cells were transfected with luciferase-expressing vector (Lenti-UTR-Luc-Blank Vector; Promega). BALB/c nude mice were anesthetized by intraperitoneal injection of tribromoethanol (150 mg/kg) and then placed in a stereotaxic instrument. A hole was made in the mouse skull and 5 μL of HS683 cell suspension (2 × 10^7 cells/mL) was injected into the brain using the stereotaxic instrument. The growth state of glioma tumours in mice was monitored by bioluminescent imaging (IVIS 3D Perkin Elmer). Animal experiments were performed according to the protocols approved by the Animal Use Review Board and Ethical Committee of Shenzhen Bay Laboratory (permit no. AFRQS202101).
During BNCT, five mice per group were injected with 2.5 mM/kg of BPA (5% fructose solution) or ANG-B solution through the tail vein. 90 min later, mice were anesthetized with an intraperitoneal injection of tribromoethanol at a dose of 150 mg/kg and then fixed in a mould for BNCT irradiation of the mouse head using a published method ([16]). Mice were treated with 2 kW of neutron flux for 2 h each time and four times for each mouse in 1 week, to achieve a total neutron flux of 12.5 ± 0.5 × 10^11 n/cm^2. Mice were anesthetized with 2% isoflurane at 25°C and imaged with PET/CT (nanoSCAN, Mediso) with 1.5 uCi/g ^18F-FDG at 1 day before or 31 days after BNCT. Image processing and analyses were performed by AMIDE (RRID: SCR_005940), where ROI, SUV values, and tumour volume were determined.
The glioma mouse model was further used in BCNT tests for ANG-B. The body weight of all the used mice was monitored during the whole process, where no obvious health issues with body weight loss were noticed (Supplementary Figure S6A). PET imaging is usually used to evaluate therapeutic response of glioma patients or mouse models ([16], [21], [22]). Therefore, we employed ^18F-FDG-based PET/CT to estimate intracranial tumour volume for each mouse 1 day before and 31 days after BNCT treatments (Figure 4A). An additional lower concentration of ANG-B at 1 mM/kg (i.e., ANG-B low) was included for comparison.

U87MG cells = test: Boron uptake in cells by ICP-AES; type: cell-based, human; details: 0–0.8 mM for 12 h
Description: (§1) Cell lines established from human glioma (U87MG, U251, and HS683), melanoma (A375), non-small cell lung cancer (A549), and hepatocellular carcinoma (HepG2) were obtained from the National Infrastructure of Cell Line Resource in China, authenticated, and cultured in DMEM, supplemented with 10% fetal bovine serum (HyClone) and 100 IU/mL penicillin/streptomycin (all Sigma-Aldrich unless otherwise noted). Cells were routinely tested for mycoplasma using the Mycoplasma Test Kit (Cellorlab, China). All cells were maintained in a humidified incubator at 5% CO2 and 37°C after defrosting and cultured in the exponential growth phase before each experiment.
(§2) After treatment with boronated peptides or BPA (HEC Pharm, Dongguan, China), boron concentrations in human cells or mice tissues were measured by inductively coupled plasma atomic emission spectroscopy (abbr., ICP-AES; Leeman’s Prodigy 7) using published methods ([16]).
(§3) An efficient boron delivery agent should enhance boron uptake in cancer cells. Thus, we analyzed boron concentrations on 6 human cancer cell lines derived from glioma (U87MG, U251, and HS683), melanoma (A375), non-small cell lung cancer (A549), or hepatocellular carcinoma (HepG2) after treatment with various concentrations of ANG-B, TAT-B, or T7-B for 12 h. BPA was tested in parallel for comparison.
(§4) Figure 1 Boron concentrations in 6 human cell lines derived from glioma (U87MG, U251, and HS683), melanoma (A375), non-small cell lung cancer (A549), or hepatocellular carcinoma (HepG2). Cells were pre-exposed to 0–0.8 mM of ANG-B, TAT-B, T7-B, or BPA for 12 h. Boron concentrations were then analyzed by ICP-AES in HS683 (A), U251 (B), U87MG (C), A375 (D), HepG2 (E), or A549 cells (F). Mean values with standard errors are shown.

[4] = melanoma patients; cited from earlier work
Text: Boron delivery agent is one of the critical factors limiting the expansion of BNCT application in cancer treatment. An ideal boron delivery agent should be low toxicity, high tumour uptake, quick blood clearance, T/N ratio > 3, and low accumulation in healthy tissues. Unfortunately, no existing boron delivery agents can fulfil all these requirements. Historically, BPA is the most popular boron delivery agent in clinical BNCT. Cancer cells usually promote cellular amino acid transport and result in increased uptake of BPA, especially in melanoma cells ([27]). A study evaluated the biodistributi ...

A375 cells = test: Boron uptake in cells by ICP-AES; type: cell-based, human; details: A375 cells (printed A357), 0–0.8 mM for 12 h, p < 0.05
Description: as §1, §2, §3, §4

HS683 cells [5] = test: Boron uptake in cells by ICP-AES; type: cell-based, human; details: 0–0.8 mM for 12 h, p < 0.05
Description: as §1, §2, §3, §4

HepG2 cells = test: Boron uptake in cells by ICP-AES; type: cell-based, human; details: 0–0.8 mM for 12 h, p < 0.05
Description: as §1, §2, §3, §4

[6] = tested on: HS683 intracranial glioma; test: TUNEL apoptosis assay in mouse tumours after BNCT; type: in vivo; details: 1 day or 7 days after treatment
Description: DNA fragmentation in apoptosis induced by BNCT was assessed using the one-step TUNEL apoptosis assay kit following the manufacturer’s protocol (Abbkine Scientific Co., Ltd., China).
In order to evaluate the ^18F-FDG uptake in tumour tissues under different treatment conditions, SUV data were calculated based on a reference region ([23]). […] Based on the 3D PET image data, we also estimated tumour volume before and after BNCT treatment for each mouse (Figure 4B). […] By contrast, tumour size in the control group kept increasing.
Supplementary Figure 6. In vivo effects of ANG-B based BNCT. (A) Body weight of glioma mouse model after treatment. (B) SUVmax analyses (indicating of FDG uptake) of glioma tumors in PET/CT imaging before and after BNCT treatment. (C) Apoptotic cells in tumor at 1 day or 7days after ANG-B based BNCT treatment as measured by TUNEL assay. Mann–Whitney U test; *p < 0.05.

[7] = glioma mouse model, 2.5 mM/kg in 5% fructose solution, time not stated
[8] = 4 h after tail-vein injection of 2.5 mM/kg, intracranial HS683 glioma mice, ICP-AES, three mice per group

| Compound | clonogenic cell death after BNCT (HS683 cells [1]) | T/B ratio of boron [2, 7] | T/N ratio of boron [2, 7] | SUV (18F-FDG uptake) in tumour tissues after BNCT, compared to control group ([3]; 2.5 mM/kg) | boron uptake compared with boronated peptides (U87MG cells) | T/N ratio [4] | skin-to-blood ratio [4] | glioma-targeting effects and blood clearance compared with BPA ([2]; 2.5 mM/kg tail vein, 1, 2, 4 or 6 h, glioma mouse model) | Tumour/blood (T/B) ratio of boron [2, 8] | Tumour/normal (T/N) tissue ratio of boron [2, 8] | SUV (18F-FDG uptake) in tumour tissues after BNCT, compared to control group ([3]; 1 mM/kg (ANG-B low)) | tumour volume at 31 days after BNCT treatment ([3]; 2.5 mM/kg, 18F-FDG PET imaging before and after BNCT) | boron uptake compared with BPA (A375 cells) | boron uptake compared with BPA (HS683 cells [5]) | boron uptake compared with BPA (HepG2 cells) | apoptotic cells in mouse tumours after BNCT [6] |
| --- | --- | --- | --- | --- | --- | --- | --- | --- | --- | --- | --- | --- | --- | --- | --- | --- |
| N[C@@H](Cc1ccc([10B](O)O)cc1)C(=O)O [BPA, ^10B-p-boronophenylalanine, reference compound] | 73.3% ± 6.0% | approximately 2 | approximately 2 | significantly decreased SUV | took up more BPA | 3.40 | 1.31 |  |  |  |  |  |  |  |  |  |
| TFFYGGSRGKRNNFKTEEYC [ANG-B, N-terminal boron-containing derivative of angiopep-2 with 10B-4-carboxyphenylboronic acid at N terminus and cysteine at C terminus] | 86.5% ± 5.3% |  |  | significantly decreased SUV |  |  |  | significantly better | 9.42 ± 2.47 | 5.61 ± 1.0 | significantly decreased SUV | significantly decreased tumour volume | significantly more boron uptake than BPA | significantly more boron uptake than BPA | significantly more boron uptake than BPA | more apoptotic cells |
| MASMTGGQQMG [T7-B, boron-peptide conjugate used as control] | 54.5% ± 1.1% |  |  |  |  |  |  |  |  |  |  |  |  |  |  |  |
